Earlier results on one molecule are cited in patent US8263660B2, “Stable hyperbaric composition comprising prilocaine HCl, use of said new composition for intrathecal anaethesia, and method for manufacturing said composition” (Sintetica S.A., priority 2006, dated 2012).

For this series the following is noted: intrathecal application, literature reference (4).

With `CCN(CC)CCOC(=O)c1ccc(N)cc1` [procaine], the inadequacy rate is at most 17%.
